Legend:
Rattus norvegicus [1] = test: Effect on helpless behavior in rats and the number of escape failures was determined in shuttle-box session-1 (SB-1) at 1 mg/kg dose; assay type: functional
Rattus norvegicus [2] = test: Effect on helpless behavior in rats and the number of escape failures was determined in shuttle-box session-2 (SB-2) at 1 mg/kg dose; assay type: functional
Rattus norvegicus [3] = test: Effect on helpless behavior in rats and the number of escape failures was determined in shuttle-box session-3 (SB-3) at 1 mg/kg dose; assay type: functional
[4] = target: T1, 5-hydroxytryptamine receptor 1A (Homo sapiens) (UniProt P08908); test: Percent increase in the Forskolin-Stimulated cAMP formation, in HeLa cells transfected with the 5-HT 1A receptor at 10 uM concentration; assay type: functional, cell-based
T1 sequence (whole entry): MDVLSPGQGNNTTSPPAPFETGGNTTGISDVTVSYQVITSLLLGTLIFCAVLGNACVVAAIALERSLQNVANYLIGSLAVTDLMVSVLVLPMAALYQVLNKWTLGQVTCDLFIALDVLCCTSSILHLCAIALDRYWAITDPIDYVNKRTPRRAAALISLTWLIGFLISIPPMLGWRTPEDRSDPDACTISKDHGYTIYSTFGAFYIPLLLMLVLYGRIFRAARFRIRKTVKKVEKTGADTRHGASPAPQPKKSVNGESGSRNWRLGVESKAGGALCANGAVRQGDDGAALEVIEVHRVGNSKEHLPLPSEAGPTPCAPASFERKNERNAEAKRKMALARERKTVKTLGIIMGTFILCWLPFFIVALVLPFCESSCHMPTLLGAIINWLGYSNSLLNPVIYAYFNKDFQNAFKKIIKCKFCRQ

[5] = target: T1, 5-hydroxytryptamine receptor 1A (Homo sapiens); test: Effect on Forskolin-Stimulated cAMP formation, in HeLa cells transfected with the 5-HT 1A receptor at 10 uM concentration; assay type: functional, cell-based
[6] = target: T2, 5-hydroxytryptamine receptor 1A (Rattus norvegicus, UniProt P19327); test: Binding affinity to 5-hydroxytryptamine 1A receptor (5-HT 1A receptor, serotonin receptor) from rat cortex using [3H]8-OH-DPAT as radioligand
T2 sequence (P19327 whole entry): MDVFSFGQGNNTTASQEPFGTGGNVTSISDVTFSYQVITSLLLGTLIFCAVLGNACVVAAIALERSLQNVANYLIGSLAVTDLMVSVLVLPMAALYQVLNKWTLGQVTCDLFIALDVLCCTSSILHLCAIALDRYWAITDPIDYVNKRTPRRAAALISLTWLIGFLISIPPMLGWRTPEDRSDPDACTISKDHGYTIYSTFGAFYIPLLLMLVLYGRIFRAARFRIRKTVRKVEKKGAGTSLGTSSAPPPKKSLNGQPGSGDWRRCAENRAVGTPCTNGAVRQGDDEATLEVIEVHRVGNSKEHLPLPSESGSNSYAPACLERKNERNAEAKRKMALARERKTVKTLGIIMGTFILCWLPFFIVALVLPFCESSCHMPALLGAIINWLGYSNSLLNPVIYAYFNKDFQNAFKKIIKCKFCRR

Mus musculus [7] = test: Effect on immobility time in the forced swimming test (FST) in mice at 0 mg/kg dose; assay type: functional
Mus musculus [8] = test: Effect on immobility time in the forced swimming test (FST) in mice at 0.1 mg/kg dose; assay type: functional
Mus musculus [9] = test: Effect on immobility time in the forced swimming test (FST) in mice at 1 mg/kg dose; assay type: functional
Mus musculus [10] = test: Effect on immobility time in the forced swimming test (FST) in mice at 10 mg/kg dose; assay type: functional
Mus musculus [11] = test: Antidepressant-like activity in the forced swimming test (FST) in mice at 1 mg/kg dose; assay type: functional
Mus musculus [12] = test: Antidepressant-like activity in the forced swimming test (FST) in mice at 10 mg/kg dose; assay type: functional
Mus musculus [13] = test: Time-dependent effect on 8-OH-DPAT-induced hypothermia (change in body temperature) after 15 min, in mice at 0.5 mg/kg dose; assay type: functional
Mus musculus [14] = test: Time-dependent effect on 8-OH-DPAT-induced hypothermia (change in body temperature) after 15 min, in mice at 5 mg/kg dose; assay type: functional
Mus musculus [15] = test: Time-dependent effect on 8-OH-DPAT-induced hypothermia (change in body temperature) after 30 min, in mice at 0.5 mg/kg dose; assay type: functional
Mus musculus [16] = test: Time-dependent effect on 8-OH-DPAT-induced hypothermia (change in body temperature) after 30 min, in mice at 5 mg/kg dose; assay type: functional
Mus musculus [17] = test: Time-dependent effect on 8-OH-DPAT-induced hypothermia (change in body temperature) after 60 min, in mice at 0.5 mg/kg dose; assay type: functional
Mus musculus [18] = test: Time-dependent effect on 8-OH-DPAT-induced hypothermia (change in body temperature) after 60 min, in mice at 5 mg/kg dose; assay type: functional
Mus musculus [19] = test: Antidepressant-like activity in the forced swimming test (FST) in mice at 0.1 mg/kg dose; assay type: functional
[20] = target: Sodium-dependent serotonin transporter (Rattus norvegicus, UniProt P31652); test: Binding affinity towards Serotonin transporter from rat cortex measured using [3H]paroxetine
Chain of Sodium-dependent serotonin transporter (P31652 whole entry): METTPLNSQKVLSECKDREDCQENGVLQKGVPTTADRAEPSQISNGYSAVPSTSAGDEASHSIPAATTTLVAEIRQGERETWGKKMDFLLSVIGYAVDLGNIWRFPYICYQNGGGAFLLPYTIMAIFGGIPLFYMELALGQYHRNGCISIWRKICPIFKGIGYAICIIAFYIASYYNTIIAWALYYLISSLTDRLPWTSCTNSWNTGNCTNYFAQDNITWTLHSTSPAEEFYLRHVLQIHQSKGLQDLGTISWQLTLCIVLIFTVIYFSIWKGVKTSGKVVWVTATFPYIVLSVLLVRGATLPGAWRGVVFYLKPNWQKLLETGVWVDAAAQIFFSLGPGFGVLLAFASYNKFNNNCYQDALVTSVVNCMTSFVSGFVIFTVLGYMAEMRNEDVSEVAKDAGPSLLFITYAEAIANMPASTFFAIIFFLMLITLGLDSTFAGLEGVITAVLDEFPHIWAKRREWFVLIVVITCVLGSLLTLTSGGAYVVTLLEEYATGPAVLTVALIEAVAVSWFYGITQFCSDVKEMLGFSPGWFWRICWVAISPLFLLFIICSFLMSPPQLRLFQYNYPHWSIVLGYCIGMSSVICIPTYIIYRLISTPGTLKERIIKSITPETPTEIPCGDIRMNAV

Rattus norvegicus [21] = test: Effect on helpless behavior in rats and the number of escape failures was determined in shuttle-box session-1 (SB-1) at 10 mg/kg dose; assay type: functional
Rattus norvegicus [22] = test: Effect on helpless behavior in rats and the number of escape failures was determined in shuttle-box session-2 (SB-2) at 10 mg/kg dose; assay type: functional
Rattus norvegicus [23] = test: Effect on helpless behavior in rats and the number of escape failures was determined in shuttle-box session-3 (SB-3) at 10 mg/kg dose; assay type: functional
[24] = target: T1, 5-hydroxytryptamine receptor 1A (Homo sapiens); test: Percent increase in the Forskolin-Stimulated cAMP formation, in HeLa cells transfected with the 5-HT 1A receptor [compound (1 uM)]; assay type: functional, cell-based
[25] = target: T1, 5-hydroxytryptamine receptor 1A (Homo sapiens); test: Percent increase in the Forskolin-Stimulated cAMP formation, in HeLa cells transfected with the 5-HT 1A receptor at 1 uM concentration; assay type: functional, cell-based
Mus musculus [26] = test: Antidepressant-like activity in the forced swimming test (FST) in mice at 0.1 mg/kg dose; Antidepressant like activity; assay type: functional
Mus musculus [27] = test: Antidepressant-like activity in the forced swimming test (FST) in mice at 1 mg/kg dose; Antidepressant like activity; assay type: functional
Mus musculus [28] = test: Antidepressant-like activity in the forced swimming test (FST) in mice at 10 mg/kg dose; Antidepressant like activity; assay type: functional
[29] = target: T1, 5-hydroxytryptamine receptor 1A (Homo sapiens); details: HeLa
Description: Effect (1 uM) on Forskolin-Stimulated cAMP formation, in HeLa cells transfected with the 5-HT 1A receptor

[30] = target: T1, 5-hydroxytryptamine receptor 1A (Homo sapiens); details: HeLa; remark: listed apart in the source
Description: Effect on Forskolin-Stimulated cAMP formation, in HeLa cells transfected with the 5-HT 1A receptor at 1 uM concentration

Rattus norvegicus [31] = test: Effect on helpless behavior in rats and the number of escape failures was determined in shuttle-box session-1 (SB-1) at 30 mg/kg dose; assay type: functional
Rattus norvegicus [32] = test: Effect on helpless behavior in rats and the number of escape failures was determined in shuttle-box session-2 (SB-2) at 30 mg/kg dose; assay type: functional
Rattus norvegicus [33] = test: Effect on helpless behavior in rats and the number of escape failures was determined in shuttle-box session-3 (SB-3) at 30 mg/kg dose; assay type: functional
Mus musculus [34] = test: Effect on immobility time in the forced swimming test (FST) in mice at mg/kg dose; assay type: functional
Mus musculus [35] = test: Effect on immobility time in the forced swimming test (FST) in mice at 0.01 mg/kg dose; assay type: functional
Mus musculus [36] = test: Antidepressant-like activity in the forced swimming test (FST) in mice at 0.01 mg/kg dose; Antidepressant like activity; assay type: functional
Mus musculus [37] = test: Time-dependent effect on 8-OH-DPAT-induced hypothermia (change in body temperature) after 15 min, in mice at 1 mg/kg dose; assay type: functional
Mus musculus [38] = test: Time-dependent effect on 8-OH-DPAT-induced hypothermia (change in body temperature) after 30 min, in mice at 1 mg/kg dose; assay type: functional
Mus musculus [39] = test: Time-dependent effect on 8-OH-DPAT-induced hypothermia (change in body temperature) after 60 min, in mice at 1 mg/kg dose; assay type: functional

SMILES | Ki ([6]; read-out: Ki) [nM] | Immobility time (Mus musculus [7]) [s] | Immobility time (Mus musculus [8]) [s] | Immobility time (Mus musculus [9]) [s] | Immobility time (Mus musculus [10]) [s] | Temperature change (Mus musculus [13]) [°C] | Temperature change (Mus musculus [14]) [°C] | Temperature change (Mus musculus [15]) [°C] | Temperature change (Mus musculus [16]) [°C] | Temperature change (Mus musculus [17]) [°C] | Temperature change (Mus musculus [18]) [°C] | Ki ([20]; read-out: Ki) [nM] | Activity (Mus musculus [26]) [%] | Activity (Mus musculus [27]) [%] | Activity (Mus musculus [28]) [%] | other results
Fc1ccc([C@@H]2CCNC[C@H]2COc2ccc3c(c2)OCO3)cc1 [PAROXETINE] | – | – | – | – | – | – | – | – | – | – | – | – | – | – | – | No. of escape failures (Rattus norvegicus [1]): 3.3; No. of escape failures (Rattus norvegicus [2]): 3; No. of escape failures (Rattus norvegicus [3]): 2.2
C=C[C@@]1(C)CC(=O)[C@]2(O)[C@@]3(C)[C@@H](O)CCC(C)(C)[C@@H]3[C@H](O)[C@H](OC(C)=O)[C@@]2(C)O1 | – | – | – | – | – | – | – | – | – | – | – | – | – | – | – | Activity [4]: 100%; cAMP [5]: 29.7 pmol/well
COc1ccccc1N1CCN(CCC(=O)c2ccsc2)CC1 | 16 | 170.1 | 169.5 | <118.8 | <44.9 | -2.52 | -2.76 | -2.04 | -2.18 | -1.48 | -1.88 | 112 | – | – | – | Activity (Mus musculus [11]): 34%; Activity (Mus musculus [12]): 83%; Activity (Mus musculus [19]): 0%
CN(C)CCC=C1c2ccccc2CCc2ccccc21 [AMITRIPTYLINE] | – | – | – | – | – | – | – | – | – | – | – | – | – | – | – | No. of escape failures (Rattus norvegicus [21]): <9; No. of escape failures (Rattus norvegicus [22]): <3.3; No. of escape failures (Rattus norvegicus [23]): <1.2
COc1ccccc1N1CCN(CC/C(=N\O)c2ccc(C)s2)CC1 | 130 | 142.7 | 151.6 | <79.2 | 126.2 | -2.12 | -1.41 | -2.05 | -1.31 | -1.11 | -0.94 | 65 | 0 | 51 | 13 | cAMP increase [24]: 33%; cAMP increase [25]: 25%; cAMP [29]: 9.8 pmol/well; cAMP [30]: 7.4 pmol/well
CNCCC(Oc1ccc(C(F)(F)F)cc1)c1ccccc1 (stereo unspecified) [FLUOXETINE] | – | – | – | – | – | – | – | – | – | – | – | – | – | – | – | No. of escape failures (Rattus norvegicus [31]): 13; No. of escape failures (Rattus norvegicus [32]): <4; No. of escape failures (Rattus norvegicus [33]): <3.2
COc1ccccc1N1CCN(CC/C(=N\O)c2csc3ccccc23)CC1 | 60 | 188.1 | 181.1 | – | <102 | -2.16 | -2.77 | -2.18 | -2.99 | -1.7 | -1.31 | 95 | 0 | 22 | 50 | Immobility time (Mus musculus [34]): 150.1 s
Oc1ccccc1N1CCN(CCC(O)c2csc3ccccc23)CC1 (stereo unspecified) | 18 | 178 | <112.5 | 183.3 | 160.9 | -2.54 | -3.17 | -2.01 | -2.2 | -1.38 | -1.32 | 39 | 40 | 0 | 11 | Immobility time (Mus musculus [35]): 186.1 s; Activity (Mus musculus [36]): 0%
COc1ccccc1N1CCN(CCC(O)c2cc(C)sc2C)CC1 (stereo unspecified) | – | 124.3 | – | 111 | 103 | -2.53 | -2.01 | -2.13 | -1.86 | -1.21 | -1.26 | 115 | – | – | – | Ki [6]: 12 nM; Activity (Mus musculus [11]): 13%; Activity (Mus musculus [12]): 20%
COc1ccccc1N1CCN(CCN(C(=O)C2CCCCC2)c2ccccn2)CC1 [WAY-100,635] | – | – | – | – | – | – | – | – | – | – | – | – | – | – | – | Temperature change (Mus musculus [37]): <-0.71 °C; Temperature change (Mus musculus [38]): <-0.95 °C; Temperature change (Mus musculus [39]): -0.35 °C
Oc1ccccc1N1CCN(CCC(O)c2ccc3ccccc3c2)CC1 (stereo unspecified) | – | – | – | 178.3 | 24.4 | -2.52 | -1.97 | -2.03 | -2.41 | -1.12 | -0.93 | – | 0 | 0 | 93 | Ki [6]: 190 nM; Ki [20]: 190 nM
